Reference: ChEMBL document CHEMBL1133112, “Structure-function relationships in aminoquinolines: effect of amino and chloro groups on quinoline-hematin complex formation, inhibition of beta-hematin formation, and antiplasmodial activity” (J Med Chem, 2000)
Calls of active or inactive are those of the source. No cut-off for these calls is given here.

Legend:
[1] = target: T1, Histidine-rich protein PFHRP-II (Plasmodium falciparum) (UniProt P05227)
T1 sequence (whole entry): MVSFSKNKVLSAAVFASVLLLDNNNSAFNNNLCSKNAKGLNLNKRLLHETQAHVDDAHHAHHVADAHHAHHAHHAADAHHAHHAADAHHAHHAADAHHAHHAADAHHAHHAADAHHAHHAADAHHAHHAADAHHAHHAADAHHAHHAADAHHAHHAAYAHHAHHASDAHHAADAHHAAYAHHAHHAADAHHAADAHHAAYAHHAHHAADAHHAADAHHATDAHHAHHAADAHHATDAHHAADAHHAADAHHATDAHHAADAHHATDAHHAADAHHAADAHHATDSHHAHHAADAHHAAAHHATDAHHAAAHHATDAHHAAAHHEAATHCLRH

Plasmodium falciparum = assay: In vitro antiplasmodial activity against Plasmodium falciparum D10; assay type: functional, organism-based
Ferriprotoporphyrin IX [2] = system: Ferriprotoporphyrin IX
Description: Association constant with ferriprotoporphyrin IX.

Ferriprotoporphyrin IX [3] = assay: LogK (Association constant) with ferriprotoporphyrin IX.

Row | NI [1] | IC50 (Plasmodium falciparum) [µM] | Log K (Ferriprotoporphyrin IX [2]) | SMILES | Log K2 (Ferriprotoporphyrin IX [3])
1 | inactive | > 10 | 4.26 | CNc1ccc2ccccc2n1 | –
2 | No inhibition | > 10 | < 2.5 | Clc1ccc2c(Cl)ccnc2c1 | –
3 | – | 0.0809 | 4.96 | CN(C)CCNc1ccnc2cc(Cl)ccc12 | –
4 | – | 4 | 4.48 | CNc1ccnc2cc(Cl)ccc12 | –
5 | No inhibition | > 10 | < 2.5 | Nc1cccc2ncccc12 | –
6 | – | 5.07 | 4.66 | OCCNc1ccnc2cc(Cl)ccc12 | –
7 | No inhibition | 4.7 | 4.59 | NCCNc1ccnc2ccccc12 | –
8 | – | 3.8 | 4.43 | Nc1ccnc2cc(Cl)ccc12 | –
9 | No inhibition | > 10 | 4.34 | NCCNc1ccc2ccccc2n1 | –
10 | No inhibition | 0.799 | 4.75 | CCN(CC)CCNc1ccnc2ccccc12 | 3.2
11 | No inhibition | > 10 | 4.28 | CC(=O)NCCNc1ccnc2ccccc12 | –
12 | No inhibition | > 10 | < 2.5 | Nc1cccc2cccnc12 [8-AMINOQUINOLINE] | –
13 | No inhibition | > 10 | < 2.5 | Nc1ccc2ncccc2c1 | –
14 | No inhibition | > 10 | 4.18 | OCCNc1ccnc2ccccc12 | –
15 | No inhibition | > 10 | 4.38 | CNc1ccnc2ccccc12 | –
16 | No inhibition | > 10 | 4.49 | Nc1ccnc2ccccc12 [QUINOLIN-4-AMINE] | –
17 | inactive | > 10 | < 2.5 | Nc1cnc2ccccc2c1 | –
18 | – | 0.092 | 4.93 | NCCNc1ccnc2cc(Cl)ccc12 | –

Row | SMILES | NI [1] | IC50 (Plasmodium falciparum) [µM] | Log K (Ferriprotoporphyrin IX [2]) | Log K2 (Ferriprotoporphyrin IX [3])
19 | c1ccc2ncccc2c1 [QUINOLINE] | inactive | > 10 | < 2.5 | –
20 | CCN(CC)CCNc1ccnc2cc(Cl)ccc12 | – | 0.049 | 5.81 | 4.47
